This passage reports GI50 and IC50 results from patent publication US20230066011A1, “PYRROLOPYRIMIDINE DERIVATIVE, AND PHARMACEUTICAL COMPOSITION FOR PREVENTING OR TREATING PROTEIN KINASE-RELATED DISEASE COMPRISING SAME AS ACTIVE INGREDIENT” (VORONOI CO., LTD., priority 2019, published 2023).

For one assay, the system named is MDA-MB-231 cell line. Kind of assay: Inhibition of proliferation of MDA-MB-231 cancer cells (Cell Titer-Glo). Format: cell-based. The settings on record: Homo sapiens, 72 hours. Here is the method:
(§1) To evaluate an inhibitory effect on the proliferation of cancer cells, each of an MDA-MB-231 cell line (Korean Cell Line Bank #30026) and an MDA-MB-468 cell line as triple-negative breast cancer cell lines, and SHP-77 (ATCC #CRL-2195) as a small-cell lung cancer cell line was cultured in DMEM (HyClone #SH30243) or an RPMI medium (HyClone #SH3027.01) to analyze a cell growth rate. More specifically, a cell line was plated on a 96-well flat bottom plate (Corning #3903) at a density of 2,000 cells/100 μL per well, and then treated with 11 concentrations of the Example compound, a solution of which was diluted 3-fold so that a final concentration of the compound was 10.000000, 3.333333, 1.111111, 0.370370, 0.123457, 0.041152, 0.013717, 0.004572, 0.001524, 0.000508, and 0.000169 μM. After 72 hours, each of the culture media was treated with 100 μL of Cell Titer-Glo (Promega G7573), and then cultured at room temperature for 10 minutes. Then, a degree of luminescence was measured using a microplate reader. A GI50 value was calculated from the measured degree of luminescence using Prism (Version 8.2 GraphPad) software.

For another assay, the target named is LRRK2 (G2019S) (Homo sapiens, UniProt Q5S007, G2019S). Kind of assay: LRRK2 G2019S enzyme inhibition, ADP-Glo kinase assay. In kind it is biochemical. On the set-up: purchased SignalChem L10-12GG. The following applies: ATP 25 μM. In short, it runs like this: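 IC50 derived from luminescent ADP-Glo readout against untreated solvent control, twelve final compound concentrations from 50 μM downward. Reaction: recombinant human LRRK2 G2019S enzyme, 25 μM ATP, substrate, pH 7.4 Tris buffer with MgCl2/BSA/DTT, 25° C. for 2 hours.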

Another assay addresses T1, human GST-DYRK1A (Homo sapiens, UniProt Q13627).
T1 construct: purified human GST-DYRK1A (full length, Thermo Scientifics) enzyme; purchased Thermo Scientifics
Kind of assay: GST-DYRK1A enzyme inhibition, ADP-Glo kinase assay. In kind it is biochemical. The settings on record: ATP 10 μM, GST-DYRK1A full length, read-out: DYRK1 IC50. In a few lines: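 Full-length enzyme (10 ng) was incubated with 10 μM ATP and a specific substrate for 1 h at 25 °C in 40 mM Tris-HCl pH 7.4, 20 mM MgCl2, 0.5 mg/mL BSA, 50 μM DTT. Luminescence was read against a solvent control, and IC50 values were derived from 3 data sets.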

A further assay has as its target T2, human GST-CLK1 (Homo sapiens, UniProt P49759).
T2 construct: purified human GST-CLK1 (129-end, SignalChem) enzyme; purchased SignalChem
Put plainly: GST-CLK1 enzyme inhibition, ADP-Glo kinase assay. In kind it is biochemical. The following applies: ATP 10 μM, GST-CLK1 129-end. In short, it runs like this: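 ADP-Glo luminescence read-out, relative to untreated solvent control, gave IC50 (nM) from triplicate data sets. Reactions ran an hour at 25° C with 3 ng GST-CLK1 (residues 129-end), 10 μM ATP and specific substrate in Tris-HCl pH 7.4 buffer with MgCl2, BSA and DTT.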

The next assay relates to MDA-MB-468 cell line. Put plainly: Inhibition of proliferation of MDA-MB-468 cancer cells (Cell Titer-Glo). The following applies: Homo sapiens, MDA-MB-468, 72 hours. In kind it is cell-based. How it is done: as §1
The target in the next assay is LRRK2 (Homo sapiens, UniProt Q5S007). Put plainly: LRRK2 enzyme inhibition, ADP-Glo kinase assay. In kind it is biochemical. The following applies: ATP 10 μM. Also noted: purchased Invitrogen PR8604B. In short, it runs like this: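 ADP-Glo luminescent read-out of ADP formed by purified human LRRK2 enzyme (25 ng), 10 μM ATP, 0.2 μg substrate, 25° C for 2 h, Tris-HCl pH 7.4 buffer with MgCl2, BSA, DTT. Inhibition versus untreated solvent control over twelve final concentrations (50 μM downward) gives IC50.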
Chain of LRRK2 (Q5S007 970-2527 limits assumed): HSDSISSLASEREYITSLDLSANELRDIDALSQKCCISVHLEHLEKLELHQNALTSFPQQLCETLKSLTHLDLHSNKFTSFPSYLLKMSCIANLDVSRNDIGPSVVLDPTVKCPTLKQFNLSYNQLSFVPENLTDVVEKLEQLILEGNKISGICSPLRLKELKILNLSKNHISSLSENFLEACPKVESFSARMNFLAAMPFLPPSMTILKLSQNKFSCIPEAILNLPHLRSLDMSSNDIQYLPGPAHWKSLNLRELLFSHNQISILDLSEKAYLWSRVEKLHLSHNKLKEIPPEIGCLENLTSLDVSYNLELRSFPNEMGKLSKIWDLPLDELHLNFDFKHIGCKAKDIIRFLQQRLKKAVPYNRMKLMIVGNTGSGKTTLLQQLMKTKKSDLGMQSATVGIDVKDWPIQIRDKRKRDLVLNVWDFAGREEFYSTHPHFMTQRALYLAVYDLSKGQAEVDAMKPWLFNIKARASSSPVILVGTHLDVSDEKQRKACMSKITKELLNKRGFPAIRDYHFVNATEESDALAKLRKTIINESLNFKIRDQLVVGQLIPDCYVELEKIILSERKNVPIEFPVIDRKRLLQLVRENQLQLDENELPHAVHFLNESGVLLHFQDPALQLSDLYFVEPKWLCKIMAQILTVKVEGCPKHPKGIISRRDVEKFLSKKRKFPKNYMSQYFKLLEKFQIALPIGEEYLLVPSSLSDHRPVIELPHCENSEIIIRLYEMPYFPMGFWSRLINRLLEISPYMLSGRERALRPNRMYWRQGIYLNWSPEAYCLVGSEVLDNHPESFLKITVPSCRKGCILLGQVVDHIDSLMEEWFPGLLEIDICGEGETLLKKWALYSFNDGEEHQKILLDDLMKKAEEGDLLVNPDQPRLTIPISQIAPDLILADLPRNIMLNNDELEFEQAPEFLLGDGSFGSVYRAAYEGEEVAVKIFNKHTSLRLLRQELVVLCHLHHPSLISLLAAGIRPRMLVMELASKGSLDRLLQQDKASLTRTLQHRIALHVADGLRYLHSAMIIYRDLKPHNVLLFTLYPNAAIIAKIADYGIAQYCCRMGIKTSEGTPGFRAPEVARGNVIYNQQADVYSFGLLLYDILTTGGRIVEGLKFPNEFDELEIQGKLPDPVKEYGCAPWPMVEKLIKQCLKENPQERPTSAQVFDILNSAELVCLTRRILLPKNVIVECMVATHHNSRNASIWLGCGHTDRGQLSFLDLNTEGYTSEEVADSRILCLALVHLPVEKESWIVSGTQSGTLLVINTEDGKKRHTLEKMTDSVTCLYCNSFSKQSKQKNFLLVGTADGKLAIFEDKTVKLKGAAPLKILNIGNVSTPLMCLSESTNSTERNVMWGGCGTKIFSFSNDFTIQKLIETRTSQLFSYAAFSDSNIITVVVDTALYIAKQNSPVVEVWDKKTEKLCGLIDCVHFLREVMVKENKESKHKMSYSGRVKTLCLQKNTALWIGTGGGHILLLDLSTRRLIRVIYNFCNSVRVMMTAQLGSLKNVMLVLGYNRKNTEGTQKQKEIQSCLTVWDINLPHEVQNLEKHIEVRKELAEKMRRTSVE

Chain of LRRK2 (G2019S) (Q5S007 970-2527 G2019S limits assumed): as the sequence (Q5S007 970-2527 limits assumed) above, with G1050S counted along it
T2 sequence (P49759 129-484 limits assumed): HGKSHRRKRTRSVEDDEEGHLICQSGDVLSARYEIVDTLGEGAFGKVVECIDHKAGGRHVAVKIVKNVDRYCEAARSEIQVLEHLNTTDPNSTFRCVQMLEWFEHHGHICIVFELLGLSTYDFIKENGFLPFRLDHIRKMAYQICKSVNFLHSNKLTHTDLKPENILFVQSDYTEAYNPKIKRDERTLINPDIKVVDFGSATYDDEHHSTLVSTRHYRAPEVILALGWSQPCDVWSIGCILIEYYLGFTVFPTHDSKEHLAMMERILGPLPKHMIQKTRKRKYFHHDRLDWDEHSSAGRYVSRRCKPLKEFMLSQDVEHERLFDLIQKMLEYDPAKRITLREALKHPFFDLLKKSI

As to `CCNc1nc(Nc2ccc(S(=O)(=O)N3CCC(N4CCOCC4)CC3)cc2OC)nc2[nH]cc(C#N)c12` [Example 82, 4-(ethylamino)-2-((2-methoxy-4-((4-morpholinopiperidin-1-yl)sulfonyl)phenyl)amino)-7H-pyrrolo[2,3-d]pyrimidine-5-carbonitrile], the GI50 with MDA-MB-231 cell line and in the assay on MDA-MB-468 cell line was less than 50 nM in each case. Further, the IC50 is less than 100 nM against LRRK2 (G2019S), 301 to 1000 nM on human GST-DYRK1A, less than 100 nM against human GST-CLK1 and less than 100 nM against LRRK2.

Take `CCCNc1nc(Nc2ccc(S(=O)(=O)N3CCC(N4CCOCC4)CC3)cc2OC)nc2[nH]cc(C#N)c12` [Example 83, 2-((2-methoxy-4-((4-morpholinopiperidin-1-yl)sulfonyl)phenyl)amino)-4-(propylamino)-7H-pyrrolo[2,3-d]pyrimidin-5-carbonitrile]: the concentration for 50% growth inhibition (GI50) in the assay with MDA-MB-231 cell line and in the assay with MDA-MB-468 cell line was less than 50 nM throughout. The IC50 was less than 100 nM on LRRK2 (G2019S), 301 to 1000 nM at human GST-DYRK1A, 101 to 300 nM against human GST-CLK1 and less than 100 nM against LRRK2.

As to `COCCNc1nc(Nc2ccc(S(=O)(=O)N3CCC(N4CCOCC4)CC3)cc2OC)nc2[nH]cc(C#N)c12` [Example 87, 2-((2-methoxy-4-((4-morpholinopiperidin-1-yl)sulfonyl)phenyl)amino)-4-((2-methoxyethyl)amino)-7H-pyrrolo[2,3-d]pyrimidine-5-carbonitrile], the results for the concentration for 50% growth inhibition (GI50) in the assay with MDA-MB-231 cell line and with MDA-MB-468 cell line were 101 to 300 nM and less than 50 nM, respectively. The IC50 at LRRK2 (G2019S) is less than 100 nM; at human GST-DYRK1A, 101 to 300 nM; against human GST-CLK1, less than 100 nM; at LRRK2, less than 100 nM.

For `COc1cc(S(=O)(=O)N2CCC(N3CCOCC3)CC2)ccc1Nc1nc(NC2CC2)c2c(C#N)c[nH]c2n1` [Example 88, 4-(cyclopropylamino)-2-((2-methoxy-4-((4-morpholinopiperidin-1-yl)sulfonyl)phenyl)amino)-7H-pyrrolo[2,3-d]pyrimidine-5-carbonitrile], the GI50 was in the range of 101 to 300 nM in the assay with MDA-MB-231 cell line and 51 to 100 nM with MDA-MB-468 cell line. Further, the IC50 at LRRK2 (G2019S) is less than 100 nM; on human GST-DYRK1A, 101 to 300 nM; at human GST-CLK1 it was 101 to 300 nM; at LRRK2, less than 100 nM.

On to `COc1cc(S(=O)(=O)N2CCC(N3CCOCC3)CC2)ccc1Nc1nc(NCC2CCCC2)c2c(C#N)c[nH]c2n1` [Example 95, 4-((cyclopentylmethyl)amino)-2-((2-methoxy-4-((4-morpholinopiperidin-1-yl)sulfonyl)phenyl)amino)-7H-pyrrolo[2,3-d]pyrimidine-5-carbonitrile], for which the GI50 in the assay with MDA-MB-231 cell line and in the assay on MDA-MB-468 cell line was 101 to 300 nM each time. In addition, the IC50 at human GST-DYRK1A is 301 to 1000 nM; at human GST-CLK1, 301 to 1000 nM; against LRRK2, less than 100 nM.

With `N#Cc1c[nH]c2nc(Nc3ccc(C(=O)N4CCOCC4)c4c3OCCO4)nc(NC3CCCC3)c12` [Example 126, 4-(cyclopentylamino)-2-((8-(morpholine-4-carbonyl)-2,3-dihydrobenzo[b][1,4]dioxin-5-yl)amino)-7H-pyrrolo[2,3-d]pyrimidine-5-carbonitrile], the 50% growth inhibitory concentration (GI50) was in the range of 101 to 300 nM in the assay on MDA-MB-231 cell line and 51 to 100 nM with MDA-MB-468 cell line. In addition, the values for the IC50 at human GST-DYRK1A, at human GST-CLK1 and on LRRK2 were 301 to 1000 nM, 301 to 1000 nM and less than 100 nM, respectively.

Regarding `CC[C@H](C)Nc1nc(Nc2ccc(S(=O)(=O)N3CCC(N4CCOCC4)CC3)cc2OC)nc2[nH]cc(C(F)(F)F)c12` [Example 211, (S)-N^4-(sec-butyl)-N^2-(2-methoxy-4-((4-morpholinopiperidin-1-yl)sulfonyl)phenyl)-5-(trifluoromethyl)-7H-pyrrolo[2,3-d]pyrimidine-2,4-diamine], the GI50 in the assay on MDA-MB-231 cell line and in the assay with MDA-MB-468 cell line was 301 to 1000 nM each time. Further, the IC50 is 101 to 300 nM against LRRK2 (G2019S), 301 to 1000 nM on human GST-DYRK1A, 301 to 1000 nM against human GST-CLK1 and less than 100 nM on LRRK2.

For the compound `C=CCNc1nc(Nc2ccc(S(=O)(=O)N3CCOCC3)cc2OC)nc2[nH]cc(C#N)c12` [Example 362, 4-(allylamino)-2-((2-methoxy-4-(morpholino-sulfonyl)phenyl)amino)-7H-pyrrolo[2,3-d] pyrimidine-5-carbonitrile], the 50% growth inhibitory concentration (GI50) in the assay on MDA-MB-231 cell line and in the assay on MDA-MB-468 cell line was less than 50 nM each time. Also, the IC50 on LRRK2 (G2019S) was less than 100 nM; on human GST-DYRK1A it was 301 to 1000 nM; on human GST-CLK1, 301 to 1000 nM; at LRRK2 it was less than 100 nM.

For `CCCNc1nc(Nc2ccc(S(=O)(=O)N3CCOCC3)cc2OC)nc2[nH]cc(C(F)(F)F)c12` [Example 372, N^2-(2-methoxy-4-(morpholino-sulfonyl)phenyl)-N^4-propyl-5-(trifluoromethyl)-7H-pyrrolo[2,3-d]pyrimidine-2,4-diamine], the GI50 in the assay with MDA-MB-231 cell line and in the assay with MDA-MB-468 cell line was 301 to 1000 nM throughout. Further, the 50% inhibitory concentration (IC50) is less than 100 nM against LRRK2 (G2019S), 301 to 1000 nM on human GST-DYRK1A, 301 to 1000 nM against human GST-CLK1 and 101 to 300 nM against LRRK2.

Take `COCCNc1nc(Nc2ccc(S(=O)(=O)N3CCOCC3)cc2OC)nc2[nH]cc(C(F)(F)F)c12` [Example 373, N^2-(2-methoxy-4-(morpholino-sulfonyl)phenyl)-N^4-(2-methoxyethyl)-5-(trifluoromethyl)-7H-pyrrolo[2,3-d]pyrimidine-2,4-diamine]: the 50% growth inhibitory concentration (GI50) in the assay with MDA-MB-231 cell line and with MDA-MB-468 cell line was 301 to 1000 nM in each case. The IC50 is less than 100 nM on LRRK2 (G2019S), 301 to 1000 nM on human GST-DYRK1A, 301 to 1000 nM on human GST-CLK1 and less than 100 nM on LRRK2.

With `COc1cc(S(=O)(=O)N2CCOCC2)ccc1Nc1nc(NC2CC2)c2c(C(F)(F)F)c[nH]c2n1` [Example 374, N^4-cyclopropyl-N^2-(2-methoxy-4-(morpholino-sulfonyl)phenyl)-5-(trifluoromethyl)-7H-pyrrolo[2,3-d]pyrimidine-2,4-diamine], the GI50 with MDA-MB-231 cell line and with MDA-MB-468 cell line was 301 to 1000 nM throughout. Moreover, the half-maximal inhibitory concentration (IC50) is less than 100 nM on LRRK2 (G2019S), 301 to 1000 nM on human GST-DYRK1A, 301 to 1000 nM against human GST-CLK1 and less than 100 nM on LRRK2.

For the compound `COc1cc(S(=O)(=O)N2CCOCC2)ccc1Nc1nc(N[C@@H]2CCOC2)c2c(C(F)(F)F)c[nH]c2n1` [Example 382, (R)-N^2-(2-methoxy-4-(morpholino-sulfonyl)phenyl)-N^4-(tetrahydrofuran-3-yl)-5-(trifluoromethyl)-7H-pyrrolo[2,3-d]pyrimidine-2,4-diamine], the values for the concentration for 50% growth inhibition (GI50) in the assay with MDA-MB-231 cell line and in the assay on MDA-MB-468 cell line were 101 to 300 nM and 301 to 1000 nM, respectively. Further, the IC50 on LRRK2 (G2019S) is less than 100 nM; on human GST-DYRK1A it was 301 to 1000 nM; against human GST-CLK1, 301 to 1000 nM.

Turning to `COc1cc(S(=O)(=O)N2CCOCC2)ccc1Nc1nc(N[C@H]2CCOC2)c2c(C(F)(F)F)c[nH]c2n1` [Example 383, (S)-N^2-(2-methoxy-4-(morpholino-sulfonyl)phenyl)-N^4-(tetrahydrofuran-3-yl)-5-(trifluoromethyl)-7H-pyrrolo[2,3-d]pyrimidine-2,4-diamine], the 50% growth inhibitory concentration (GI50) was 101 to 300 nM with MDA-MB-231 cell line and 301 to 1000 nM in the assay on MDA-MB-468 cell line. The values for the half-maximal inhibitory concentration (IC50) at LRRK2 (G2019S), on human GST-DYRK1A and at human GST-CLK1 were less than 100 nM, 301 to 1000 nM and 301 to 1000 nM, respectively.

`CCNc1nc(Nc2ccc(S(=O)(=O)N3CCC(N4CCOCC4)CC3)c3c2OCC3)nc2[nH]cc(C(F)(F)F)c12` [Example 467, N^4-ethyl-N^2-(4-((4-morpholino-piperidin-1-yl)sulfonyl)-2,3-dihydrobenzo-furan-7-yl)-5-(trifluoromethyl)-7H-pyrrolo[2,3-d]pyrimidine-2,4-diamine]: the figures for the GI50 with MDA-MB-231 cell line and in the assay with MDA-MB-468 cell line were 51 to 100 nM and 101 to 300 nM, respectively. Moreover, the IC50 at human GST-DYRK1A was 301 to 1000 nM; at human GST-CLK1, 301 to 1000 nM; against LRRK2 it was less than 100 nM.
